What all share (assay): biochemical
Parameters in all cases: Thermal shift (DSF, SYPRO Orange) Tm shift of recombinant kinase domains at 10 uM compound

One experiment has as its target T1, MAP2K7 (Homo sapiens, UniProt O14733).
T1 sequence (O14733 1-419): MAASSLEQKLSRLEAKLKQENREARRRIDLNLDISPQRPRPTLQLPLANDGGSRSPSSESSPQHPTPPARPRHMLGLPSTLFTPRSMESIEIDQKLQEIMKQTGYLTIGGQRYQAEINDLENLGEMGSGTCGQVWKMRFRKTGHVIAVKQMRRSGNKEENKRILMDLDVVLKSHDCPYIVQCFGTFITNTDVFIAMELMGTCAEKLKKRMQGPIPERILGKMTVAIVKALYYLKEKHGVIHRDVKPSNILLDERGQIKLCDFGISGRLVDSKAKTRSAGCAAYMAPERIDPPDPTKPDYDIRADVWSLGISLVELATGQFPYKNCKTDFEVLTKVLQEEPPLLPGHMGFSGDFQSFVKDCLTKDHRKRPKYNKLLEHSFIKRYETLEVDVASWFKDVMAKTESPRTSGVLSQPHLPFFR

In another experiment the target is EPHA5 (Homo sapiens, UniProt P54756).
EPHA5, sequence (P54756 whole entry): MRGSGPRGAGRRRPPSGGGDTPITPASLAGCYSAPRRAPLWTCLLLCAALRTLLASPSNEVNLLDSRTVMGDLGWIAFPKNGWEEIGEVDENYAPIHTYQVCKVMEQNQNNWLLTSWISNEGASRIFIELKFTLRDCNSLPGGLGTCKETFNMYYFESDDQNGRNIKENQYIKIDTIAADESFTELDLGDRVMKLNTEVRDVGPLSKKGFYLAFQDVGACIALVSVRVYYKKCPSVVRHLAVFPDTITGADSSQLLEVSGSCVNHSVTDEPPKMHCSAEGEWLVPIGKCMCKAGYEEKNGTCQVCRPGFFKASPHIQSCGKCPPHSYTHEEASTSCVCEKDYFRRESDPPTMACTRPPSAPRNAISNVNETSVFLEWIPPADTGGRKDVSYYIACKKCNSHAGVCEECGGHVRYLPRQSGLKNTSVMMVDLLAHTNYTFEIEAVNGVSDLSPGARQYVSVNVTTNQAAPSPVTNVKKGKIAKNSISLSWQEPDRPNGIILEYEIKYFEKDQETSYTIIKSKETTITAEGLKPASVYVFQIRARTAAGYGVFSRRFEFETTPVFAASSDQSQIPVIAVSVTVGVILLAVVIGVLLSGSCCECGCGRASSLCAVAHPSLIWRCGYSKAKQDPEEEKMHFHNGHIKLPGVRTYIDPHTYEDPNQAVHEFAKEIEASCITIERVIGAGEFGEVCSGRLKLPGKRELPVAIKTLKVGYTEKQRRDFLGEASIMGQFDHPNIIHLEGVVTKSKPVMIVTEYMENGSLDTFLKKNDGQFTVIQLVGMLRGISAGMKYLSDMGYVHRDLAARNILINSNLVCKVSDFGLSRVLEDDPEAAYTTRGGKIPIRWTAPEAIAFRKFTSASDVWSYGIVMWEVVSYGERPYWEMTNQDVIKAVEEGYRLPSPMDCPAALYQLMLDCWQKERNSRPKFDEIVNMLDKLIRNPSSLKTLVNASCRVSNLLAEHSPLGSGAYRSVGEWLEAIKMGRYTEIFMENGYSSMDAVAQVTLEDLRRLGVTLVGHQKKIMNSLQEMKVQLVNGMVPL
Another experiment concerns the target NEK7 (Homo sapiens, UniProt Q8TDX7).
In the next experiment the target is T2, OSR1 (Homo sapiens, UniProt O95747).
T2 construct: gene OXSR1
T2 sequence (O95747 whole entry): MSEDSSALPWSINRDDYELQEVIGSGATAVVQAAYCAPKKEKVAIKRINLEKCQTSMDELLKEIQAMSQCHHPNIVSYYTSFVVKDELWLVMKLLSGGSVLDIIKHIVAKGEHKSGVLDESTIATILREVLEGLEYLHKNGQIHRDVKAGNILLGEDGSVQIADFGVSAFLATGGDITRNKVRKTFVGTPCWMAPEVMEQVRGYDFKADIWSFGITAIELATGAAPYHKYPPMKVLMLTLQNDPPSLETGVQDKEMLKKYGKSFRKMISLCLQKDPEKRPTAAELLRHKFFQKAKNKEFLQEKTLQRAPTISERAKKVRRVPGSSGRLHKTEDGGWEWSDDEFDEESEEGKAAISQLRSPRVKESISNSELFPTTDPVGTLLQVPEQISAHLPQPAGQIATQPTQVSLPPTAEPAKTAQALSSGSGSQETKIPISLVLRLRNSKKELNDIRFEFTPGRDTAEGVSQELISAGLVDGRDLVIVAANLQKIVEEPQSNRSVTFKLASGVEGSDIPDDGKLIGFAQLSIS

Another experiment addresses T3, PCTAIRE1 (Homo sapiens, UniProt Q00536).
T3 construct: gene CDK16

Another experiment addresses T4, MST4 (Homo sapiens, UniProt Q9P289).
T4 construct: gene STK26

For a further experiment, the target named is T5, PHKg2 (Homo sapiens, UniProt P15735).
T5 construct: kinase domain
T5 sequence (P15735 1-406): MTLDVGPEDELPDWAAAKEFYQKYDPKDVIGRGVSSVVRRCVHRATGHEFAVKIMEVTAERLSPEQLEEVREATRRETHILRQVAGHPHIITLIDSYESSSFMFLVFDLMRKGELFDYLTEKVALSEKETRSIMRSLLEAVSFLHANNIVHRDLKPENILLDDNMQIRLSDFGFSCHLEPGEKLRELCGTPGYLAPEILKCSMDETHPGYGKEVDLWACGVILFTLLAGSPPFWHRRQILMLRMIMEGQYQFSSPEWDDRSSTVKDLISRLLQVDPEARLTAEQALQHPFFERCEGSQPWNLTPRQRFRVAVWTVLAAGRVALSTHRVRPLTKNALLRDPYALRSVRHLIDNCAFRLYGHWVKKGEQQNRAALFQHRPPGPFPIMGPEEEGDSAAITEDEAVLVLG

The target in the next experiment is T6, p38a (Homo sapiens, UniProt Q16539).
T6 construct: gene MAPK14
T6 sequence (Q16539 whole entry): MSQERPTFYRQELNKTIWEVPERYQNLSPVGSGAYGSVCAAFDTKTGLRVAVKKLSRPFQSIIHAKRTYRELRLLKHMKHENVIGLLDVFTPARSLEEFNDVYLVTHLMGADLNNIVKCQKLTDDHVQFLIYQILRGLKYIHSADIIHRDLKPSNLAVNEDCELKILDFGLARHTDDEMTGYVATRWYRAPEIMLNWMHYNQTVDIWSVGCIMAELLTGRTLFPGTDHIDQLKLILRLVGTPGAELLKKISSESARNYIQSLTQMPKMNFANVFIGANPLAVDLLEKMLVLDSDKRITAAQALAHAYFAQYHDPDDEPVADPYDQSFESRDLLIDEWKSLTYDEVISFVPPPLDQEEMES

The target of a further experiment is T7, EPHB3 (Homo sapiens, UniProt P54753).
T7 sequence (P54753 1-998): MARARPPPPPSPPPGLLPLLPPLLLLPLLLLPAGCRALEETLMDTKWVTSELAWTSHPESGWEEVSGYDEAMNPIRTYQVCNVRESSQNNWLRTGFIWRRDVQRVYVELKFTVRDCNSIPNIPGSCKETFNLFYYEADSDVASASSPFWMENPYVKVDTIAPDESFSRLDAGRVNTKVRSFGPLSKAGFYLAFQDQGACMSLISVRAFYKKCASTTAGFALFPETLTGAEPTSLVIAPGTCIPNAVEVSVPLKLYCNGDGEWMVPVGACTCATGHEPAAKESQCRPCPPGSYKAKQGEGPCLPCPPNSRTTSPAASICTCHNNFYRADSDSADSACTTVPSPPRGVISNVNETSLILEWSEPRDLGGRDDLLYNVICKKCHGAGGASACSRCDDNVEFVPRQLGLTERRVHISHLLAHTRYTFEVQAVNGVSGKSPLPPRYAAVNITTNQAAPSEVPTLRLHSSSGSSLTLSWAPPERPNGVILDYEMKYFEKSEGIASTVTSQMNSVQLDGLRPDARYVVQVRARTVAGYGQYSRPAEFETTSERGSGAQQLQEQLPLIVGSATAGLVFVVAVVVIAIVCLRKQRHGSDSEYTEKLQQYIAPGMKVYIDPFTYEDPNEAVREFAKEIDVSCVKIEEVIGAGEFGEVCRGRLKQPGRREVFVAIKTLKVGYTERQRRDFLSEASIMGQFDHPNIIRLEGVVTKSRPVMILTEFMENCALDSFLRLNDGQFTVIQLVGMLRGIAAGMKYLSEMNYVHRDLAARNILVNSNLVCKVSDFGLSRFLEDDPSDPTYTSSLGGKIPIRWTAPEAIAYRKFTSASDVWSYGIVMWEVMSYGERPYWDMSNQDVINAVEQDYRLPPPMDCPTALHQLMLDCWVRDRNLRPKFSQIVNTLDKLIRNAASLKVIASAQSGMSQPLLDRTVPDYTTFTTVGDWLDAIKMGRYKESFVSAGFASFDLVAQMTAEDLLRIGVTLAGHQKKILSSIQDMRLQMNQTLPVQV

Like-named read-outs stand apart in the source and are kept apart here.

NEK7, sequence (Q8TDX7 whole entry): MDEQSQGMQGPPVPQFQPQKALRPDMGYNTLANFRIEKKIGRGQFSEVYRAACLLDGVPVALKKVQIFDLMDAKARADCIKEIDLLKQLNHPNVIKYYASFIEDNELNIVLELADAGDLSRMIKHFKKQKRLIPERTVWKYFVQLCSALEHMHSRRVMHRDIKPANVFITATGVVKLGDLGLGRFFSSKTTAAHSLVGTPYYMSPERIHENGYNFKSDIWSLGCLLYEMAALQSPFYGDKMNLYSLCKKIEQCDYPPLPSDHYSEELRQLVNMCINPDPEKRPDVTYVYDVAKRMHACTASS
T4 sequence (Q9P289 whole entry): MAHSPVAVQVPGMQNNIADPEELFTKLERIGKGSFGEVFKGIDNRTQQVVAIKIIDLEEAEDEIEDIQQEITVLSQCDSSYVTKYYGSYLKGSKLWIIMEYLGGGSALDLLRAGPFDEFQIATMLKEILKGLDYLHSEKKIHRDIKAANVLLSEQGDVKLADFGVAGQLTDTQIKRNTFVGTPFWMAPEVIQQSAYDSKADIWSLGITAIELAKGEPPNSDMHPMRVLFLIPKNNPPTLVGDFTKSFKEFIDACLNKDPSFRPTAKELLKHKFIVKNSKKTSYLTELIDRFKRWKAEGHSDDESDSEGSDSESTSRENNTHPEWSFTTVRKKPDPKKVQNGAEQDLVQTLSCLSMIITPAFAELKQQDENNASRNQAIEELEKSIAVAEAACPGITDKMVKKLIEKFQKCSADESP
T3 sequence (Q00536 whole entry): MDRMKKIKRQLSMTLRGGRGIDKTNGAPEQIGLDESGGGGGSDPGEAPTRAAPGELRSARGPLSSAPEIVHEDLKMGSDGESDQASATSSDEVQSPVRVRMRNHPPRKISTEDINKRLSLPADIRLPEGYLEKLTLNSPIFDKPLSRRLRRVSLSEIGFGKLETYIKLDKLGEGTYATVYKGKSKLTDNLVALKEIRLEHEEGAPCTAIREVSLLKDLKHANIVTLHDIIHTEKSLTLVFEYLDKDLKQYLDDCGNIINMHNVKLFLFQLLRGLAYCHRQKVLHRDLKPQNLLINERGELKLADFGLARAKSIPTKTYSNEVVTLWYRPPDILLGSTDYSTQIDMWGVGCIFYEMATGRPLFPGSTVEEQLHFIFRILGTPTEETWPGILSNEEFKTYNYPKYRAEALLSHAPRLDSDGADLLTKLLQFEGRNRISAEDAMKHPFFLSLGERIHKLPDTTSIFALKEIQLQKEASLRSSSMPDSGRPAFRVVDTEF

Consider `CC(C)Oc1ccc2ccn(-c3cncc(-c4ccc(C(=O)O)cc4)n3)c2c1` [6c], for which the ΔTm at 10 µM on MAP2K7 (read-out: 6c) is 0 °C; at EPHA5 (read-out: 6c), 2 °C; on NEK7 (read-out: 6c), -1 °C; on OSR1 (read-out: 6c), -2 °C; at PCTAIRE1 (read-out: 6c), 5 °C; on MST4 (read-out: 6c), -4 °C. For the same compound, the ΔTm at 10 µM was 5 °C on PHKg2 (read-out: 6c), -3 °C on p38a (read-out: 6c) and 1 °C on EPHB3 (read-out: 6c).
Turning to `COc1ccc(OC(C)C)cc1Nc1cncc(-c2ccc(C(=O)O)cc2)n1` [7c], the ΔTm at 10 µM at MAP2K7 (read-out: 7c) was -1 °C; at EPHA5 (read-out: 7c), 1 °C; at NEK7 (read-out: 7c), -1 °C; at OSR1 (read-out: 7c), 0 °C; at PCTAIRE1 (read-out: 7c) it was 2 °C; at MST4 (read-out: 7c), -1 °C. Further, the results for the ΔTm at 10 µM on PHKg2 (read-out: 7c), on p38a (read-out: 7c) and at EPHB3 (read-out: 7c) were 3 °C, -1 °C and -1 °C, respectively.
Turning to `CC(C)Nc1ccc2cnn(-c3cncc(-c4ccc(C(=O)O)cc4)n3)c2c1` [compound 2, 2], the ΔTm at 10 µM on MAP2K7 (read-out: 2) is 0 °C; on EPHA5 (read-out: 2), 2 °C; on NEK7 (read-out: 2) it was 0 °C; on OSR1 (read-out: 2) it was -1 °C; at PCTAIRE1 (read-out: 2), 2 °C; on MST4 (read-out: 2), 3 °C. In addition, the values for the ΔTm at 10 µM at PHKg2 (read-out: 2), at p38a (read-out: 2) and at EPHB3 (read-out: 2) were 8 °C, -1 °C and 0 °C, respectively.

Values taken from publication doi:10.1101/2023.12.04.569845, “Identification of 4-(6-((2-methoxyphenyl)amino)pyrazin-2-yl)benzoic acids as CSNK2A inhibitors with antiviral activity and improved selectivity over PIM3” (bioRxiv, 2023).
